# Experimental data: patent publication US11548850B2, “Development of a cofilin inhibitor for the treatment of hemorrhagic brain injury-induced neuroinflammation” (The University of Toledo, priority 2019, dated 2023)
# “Also recorded” adds a separate entry of the source.
# What was measured:
# [1] = system: NO release from HMC3 cells; experiment: Griess assay for NO release from LPS-challenged HMC3 cells; type: cell-based, human
# Description: Cultured HMC3 cells were challenged with 0.1 μg/mL of LPS and treated with different concentrations of SZ-3 concurrently. At the end of the experiment cells were harvested for MTT by CellTiter-Glo Luminescent assay (FIG. 9A), Griess assay for NO release (FIG. 9B), and TNF-α by ELISA (FIG. 9C).
# After hemorrhage, activated microglia release proinflammatory mediators such as cytokines, chemokines, and nitric oxide (NO) leading to secondary injury which may be worse than the initial insult and may result in severe neurological deficits and death. In order to test whether the synthesized compound will reduce or stop microglial activation and inflammation after hemorrhage, whether the compound poses toxicity to microglia was first assessed. Human microglial cell line (HMC3) was challenged or activated with lipopolysaccharide (LPS) ([…]) and treated with different concentrations of the SZ-3 (10 and 5 μM) concurrently. CellTiter-Glo luminescent assay was used for cell viability; Griess reagent assay was used for NO release and ELISA was used for TNF-α estimations.
# Next, a NO release assay was performed to determine if SZ-3 can reduce the NO release. […] Next, whether the major inflammatory cytokine TNF-α is reduced with the SZ-3 treatment was evaluated. As a consequence of microglial activation, TNF-α levels are increased, and the same pattern was observed when cells were challenged with LPS. There was a significant increase in TNF-α after LPS challenge.
# NO was indirectly assayed through the measurement of nitrite by mixing a sample of culture medium with an equal volume of Griess reagent (0.3% naphthylethylenediamine dihydrochloride, 3% sulfanilamide, 8% phosphoric acid) and reading at 540 nm.
# [2] = molecular target: cofilin (Homo sapiens, UniProt P23528); experiment: In vitro F-actin depolymerization assay; type: biochemical; parameters: purchased Cytoskeleton, Inc; conditions: SZ-3 5 μM, cofilin 0.25 μM, 30 min, rabbit muscle actin, SiR-actin probe
# Description: The inhibitory effect of SZ-3 was tested using an F-actin depolymerization assay. Rabbit muscle actin (Cytoskeleton, Inc.) was reconstituted with general actin and incubated on ice for 30 min to depolymerize any existing actin oligomers. Cofilin (Cytoskeleton, Inc.) at 0.25 μM and SZ-3 (5 μM) were added together to the corresponding vials and incubated for 30 min to ensure cofilin depolymerization and efficacy of the SZ-3. SiR-actin probe (Cytoskeleton, Inc.) was added at 50 nM and incubated for 1 h to visualize actin filaments. Finally, 5-10 μl of each group was added to a slide and imaged with fluorescent microscope at 652 nm.
# Cofilin inhibition with SZ-3 was tested using an f-actin depolymerization high-throughput screening assay.
# SZ-3 inhibitory effect on cofilin was tested using F-actin depolymerization assay. Briefly, rabbit muscle actin (Cytoskeleton, Inc.) was reconstituted with general actin buffer to 40 μM (stock) and incubated on ice for 30 min to depolymerize any existing actin oligomers. Next, actin stock solution was further diluted to a 1 μM working solution and then polymerized into filaments with the addition of 1/10 th the volume of actin polymerization buffer (Cytoskeleton, Inc.). The mix was incubated at room temperature for 1 h to ensure optimum polymerization. […]
# [3] = system: HMC3 cells; experiment: Scratch wound assay (IncuCyte) of microglial migration and proliferation; type: cell-based, human; conditions: LPS 200 ng/ml
# Description: HMC3 cells were seeded onto a poly-D-lysine hydrobromidecoated-coated 96-well culture plate and placed overnight in a 37° C. IncuCyte S3. WoundMaker was used to simultaneously create wounds in all wells and then LPS (200 ng/ml) was added to wounded cells except control group. After 3 h cells were treated with DMSO (control) or SZ-3 (5 μM). The wound images were taken at 2 h intervals for 58 h. Data were processed and analyzed by using IncuCyte software.
# In response to brain injury, microglia transform into an activated state and migrate to the damaged area. This migration leads to an accumulation of activated microglia around the injury site resulting in vicious cycle of microglial activation and further release of inflammatory cytokines. To elucidate whether SZ-3 can stop or reduce the migration of activated microglial cells towards the injury site, a scratch wound assay was performed. At different time intervals, wound confluence, relative wound, and wound width metrics were assayed to analyze the migration of the microglial cells.
# HMC3 cells (30,000 cells/well) were seeded onto a poly-D-lysine hydrobromidecoated-coated 96-well culture plate (corning) and placed overnight in a 37° C. IncuCyte S3 (Essen BioScience) supplied with 5% CO2. WoundMaker (Essen BioScience) was used to simultaneously create wounds in all wells then washed twice with culture medium. LPS (200 ng/ml) was added to wounded cells except control group immediately after the wash. 3 h later cells were treated with DMSO (control) or SZ-3 (5 μM). The wound images were taken at 2 h intervals for 72 h. Data were processed and analyzed by using IncuCyte software.
# [4] = system: SHSY cells; experiment: Thrombin-induced cell death in SHSY cells (MTT); type: cell-based, human; conditions: thrombin 100 U/ml
# Description: The synthesized SZ-3 compound was tested for neuroprotective properties in cell-based models using a neuroblastoma cell line (SHSY) and thrombin as a stressor. Thrombin was used as a cell death inducer in cell-based models for hemorrhagic brain injury. SHSY cells were challenged by 100 U/ml thrombin and after 3 hrs treated with different concentrations of synthesized compounds. […] Cell death is observed through fluorescence.
# (§1) All types of cells used in these examples were assayed for viability and proliferation after 24-72 h using the MTT or CellTiter-Glo Luminescent assay Promega (Madison, Wis.). Cells after treatment were incubated with MTT reagent for 3 h in 5% CO2 at 37° C. The medium was replaced with DMSO to dissolve formazan crystals. Absorbance was read at 570 nm to quantify cell viability. CellTiter-Glo reagents were used in some experiments by adding equal amounts of reagent to the amount of medium containing cells for a 96-well plate. Contents were mixed for 2 minutes then incubated the plate for 10 minutes at room temperature to stabilize luminescent signal.
# [5] = system: phosphocofilin; experiment: WB of phosphocofilin in thrombin-challenged HMC3 cells; type: cell-based, human; conditions: thrombin 100 U/ml, SZ-3 10, 5 μM after 3 h, WB after 24 h
# Description: (§2) FIG. 11: SZ-3 reduces inflammation through NF-κB mechanism. Cultured HMC3 cells were challenged with thrombin 100 U/ml and after 3 h were treated with different concentrations of SZ-3 (10 and 5 μM). Cells were harvested for WB analysis after 24 h.
# (§3) WB was used to assay the expression levels of cofilin, phosphocofilin, and NF-κB. […] Without wishing to be bound by theory, the role of phosphocofilin is not fully understood, but it is believed that it is decreased in stress conditions and its restoration is beneficial.
# (§4) HMC3 cells were cultured in DMEM/F12 medium supplemented with 5% horse serum (HS), 10% fetal bovine serum (FBS), and 1% penicillin/streptomycin. Cells were stimulated with 100 U/ml thrombin from bovine plasma (Sigma) and treated without (vehicle) or with different concentrations of SZ-3.
# Cells were harvested and washed with ice-cold lysis buffer (250 mM sucrose, 1.5 mM MgCl2, 10 mM KCl, 20 mM HEPES 7.6 pH, 1 mM of dithiothreitol, 1 mM phenylmethylsulfonyl fluoride, 50 mM NaF, 10 mM sodium orthovanadate, 20 mM sodium pyrophosphate, and protease inhibitors) for 15 min then supplemented with 5% of Nonidet P-40 for 2 min. […] Glyceraldehyde 3-phosphate dehydrogenase (GAPDH) or beta-actin were used as the loading control, and band intensity analyzed using Bio-Rad Chemi-Doc XRS Image Lab Software.
# [6] = system: HMC3 cells; experiment: Thrombin-induced cell death in HMC3 cells; type: cell-based, human; conditions: thrombin 100 U/ml, SZ-3 10 μM
# Description: as §2, §1
# [7] = system: cofilin; experiment: WB of cofilin in thrombin-challenged HMC3 cells; type: cell-based, human; conditions: thrombin 100 U/ml, SZ-3 5 μM (FIG. 11 legend)
# Description: as §2, §3, §4
# Cells were harvested and washed with ice-cold lysis buffer (250 mM sucrose, 1.5 mM MgCl2, 10 mM KCl, 20 mM HEPES 7.6 pH, 1 mM of dithiothreitol, 1 mM phenylmethylsulfonyl fluoride, 50 mM NaF, 10 mM sodium orthovanadate, 20 mM sodium pyrophosphate, and protease inhibitors) for 15 min then supplemented with 5% of Nonidet P-40 for 2 min. Cytosolic fraction was collected from the supernatant after centrifugation at 14,000 g for 10 min. Bradford reagent (Bio-Rad Laboratories) was used to determine the protein concentrations, and equal amounts of samples were loaded onto 10-15% SDS-polyacrylamide gels, separated by electrophoresis, and transferred to PVDF membranes. Membranes were blocked and incubated with primary antibodies; cofilin, phosphocofilin, and NF-kB (Cell Signaling Technology) at 4° C. overnight. Membranes were incubated for 1 h at room temperature with horseradish peroxidase-conjugated secondary antibody (1:5000; Jackson ImmunoResearch) after washing. Glyceraldehyde 3-phosphate dehydrogenase (GAPDH) or beta-actin were used as the loading control, and band intensity analyzed using Bio-Rad Chemi-Doc XRS Image Lab Software.
# Chain of cofilin (Homo sapiens, UniProt P23528) (P23528 whole entry): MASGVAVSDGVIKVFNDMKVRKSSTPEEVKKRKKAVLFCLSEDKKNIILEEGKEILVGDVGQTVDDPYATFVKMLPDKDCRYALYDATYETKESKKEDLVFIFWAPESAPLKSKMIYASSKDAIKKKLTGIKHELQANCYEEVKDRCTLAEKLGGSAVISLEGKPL
compound,measurement,setting,value
"CC(C)(C)c1ccc(O)c(CN(Cc2cc(C(C)(C)C)ccc2O)C2CCC(NC(N)=O)CC2)c1 (stereo not shown) [SZ-3, 4-{bis[(5-tert-butyl-2-hydroxyphenyl)methyl]amino}cyclohexyl urea]",NO release,"[1]; LPS 0.1 μg/mL, different concentrations of SZ-3",significantly reduced NO
same,NO release,"[1]; LPS, SZ-3 5 μM, p<0.001",significantly reduced NO release
same,NO release,"[1]; LPS, SZ-3 10 μM",significance was at p<0.01
same,severing and depolymerizing activity of cofilin on F-actin,[2],prevented the severing and depolymerizing activity of cofilin; also recorded: binds to cofilin
same,distance between the migrating edges of the wound (wound width),[3]; SZ-3 5 μM after 3 h,in between
same,microglial migration and proliferation,[3]; SZ-3 5 μM after 3 h,reduces the proliferation and migration of the microglial cells; also recorded: reduced microglial migration and proliferation
same,confluence of cells within the wound region,"[3]; SZ-3 5 μM after 3 h, first 24 h",less with SZ-3 treated cells relative to non-treated cells
same,cell density in the wound area relative to outside the wound area,"[3]; SZ-3 5 μM, after the 24 h of treatment",slow increase rate in cell density in the wound area
same,"cell death induced by thrombin, best concentration",[4]; SZ-3 10 μM,showing the best effect
same,cell death induced by thrombin,"[4]; SZ-3 20, 10, 5 μM after 3 h, MTT after 24 h",significantly reversed the cell death; also recorded: significantly restored cell death induced by thrombin
same,phosphocofilin expression level,[5],reversed the expression levels
same,cell death induced by thrombin,[6],significantly restored cell death induced by thrombin
same,cofilin expression,[7],reduced by treatment with 5 μM of SZ-3
